Reference: patent US8507555B2, “Non-toxic anti-cancer drug combining ascorbate, magnesium and a naphthoquinone” (Summa Health System, priority 2006, dated 2013)
pIC50: −log10 of the molar value. Where two headings read alike, the source gives them in different places.

Key:
HS68 Fibroblasts = test: MTT cytotoxicity assay, HS68 fibroblasts; assay type: cell-based; settings: read-out: CD50, vitamin alone
Procedure: (§1) The effect of the new Mg-containing formulation, which combined MgVC2+VK3, on proliferation and survival of cancer cells was evaluated was then evaluated using the MTT assay, a […] assay that measures the number of viable cells in a cell sample. 3-[4,5-dimethylthiazol-2-yl]-2,5-diphenyltetrazolium bromide (MTT) is a chromogen that is converted to a measurable colored product by viable cells. Therefore, the amount of color measured is proportional to the number of viable cells. This assay has been used widely to assess the cytotoxicity and selectivity of anti-cancer drugs because MTT is suitable for rapid toxicity characterization of new drug candidates and formulations. One way of assigning a cytotoxic activity to an agent is by converting the raw date to a CD50 value, which represent the amount (dose) of the agent needed to achieve 50% of the maximal cytotoxic activity. A lower CD50 indicates a greater cytotoxic activity (as a lower amount of the agent is needed to achieve a fixed level of cytotoxicity). Two agents can be compared by examining the fold-increase or decrease in their CD50 values.
(§2) To evaluate the antitumor activity at a MgVC2:VK3 ratio of […], MgVC was combined with VK3 at a MgVC2:VK3 ratio of 100:1 (which is effectively a VC:VK3 ratio of 200:1). The NaVC:K3 formulation was prepared at a ratio of 200:1.
This indicates a selectivity for tumor vs. “normal” cells.

[1] = tested on: DU145 Prostate Cancer Cells; test: MTT cytotoxicity assay, DU145 prostate cancer cells; assay type: cell-based, human; settings: read-out: CD50, vitamin alone
Procedure: as §1, §2
The antitumor activity of the two formulations against a human androgen-independent prostate cancer cell line DU145 was evaluated in the MTT assay.

DNase I = settings: tumor cells; cited from earlier work
[2] = Homo sapiens, DU-145, 24 h, 1 day
[3] = Homo sapiens, DU-145, 48 h, 2 days
[4] = Homo sapiens, DU-145, 72 h, 3 days

| Molecule | pIC50 (HS68 Fibroblasts; Homo sapiens, 24 h, 1 day) | pIC50 (HS68 Fibroblasts; Homo sapiens, 48 h, 2 days) | pIC50 (HS68 Fibroblasts; Homo sapiens, 72 h, 3 days) | pIC50 [1, 2] | pIC50 [1, 3] | pIC50 [1, 4] | time of exposure to re-expression of latent DNase I activity (DNase I) [min] | pIC50 (HS68 Fibroblasts; 1 day) | pIC50 (HS68 Fibroblasts; 2 days) | pIC50 (HS68 Fibroblasts; 3 days) | pIC50 ([1]; 1 day) | pIC50 ([1]; 2 days) | pIC50 ([1]; 3 days) |
| --- | --- | --- | --- | --- | --- | --- | --- | --- | --- | --- | --- | --- | --- |
| O=C1O[C@H]([C@@H](O)CO)C(O)=C1O [NaVC, sodium ascorbate] | 2.83 | 2.90 | 2.93 | 2.51 | 2.83 | 3.00 |  |  |  |  |  |  |  |
| CC1=CC(=O)c2ccccc2C1=O [VK3, 2-methyl-1,4-naphthoquinone] | 4.73 | 4.72 | 4.73 | 4.43 | 4.43 | 4.43 | ≤ 15 |  |  |  |  |  |  |
| magnesium ascorbate [MgVC2] |  |  |  |  |  |  |  | 2.78 | 2.76 | 2.82 | 2.60 | 2.94 | 3.36 |
